According to patent publication US20050129769A1, “Polymeric articles for carrying therapeutic agents” (priority 2002, published 2005):

How the values were obtained:
[1] = system: chorioallantoic membranes (CAM) of 7-days old chicken embryos incubated with murine mammary carcinoma Cl-66 cells; conditions: 3-day incubation
Procedure: The chorioallantoic membranes (CAM) of 7-days old chicken embryos were incubated with each 10^5 cells of the murine mammary carcinoma Cl-66 24 hours prior to a 3-day incubation with disks containing either 5 μg of Doxorubicin, 5 μg of Dox equivalent in nanoparticles (14/1/1 IMMA/NOBA/NaA, PEG3400), 5 μg of Dox equivalent in nanoparticles functionalized with cyclic-RGD (14/1/1 IMMA/NOBA/NaA, PEG3400-cRGD), or PBS as a control. Linker attachment to nanoparticles was made as described in Example 31.
After 3 days, CAMs were excised and photographed for analysis.

[2] = system: C-32 cells (human melanoma); assay: In vitro cytotoxicity, MTT cell proliferation assay; type: cell-based; conditions: 48 hours, free drug
Procedure: The toxicity of Dox linked to the nanoarticles via the amide bond was tested in an in vitro toxicity assay against C-32 cells (human melanoma).
In a 96-well tissue culture microtiter plate, 10,000 cells of C-32 per well in culture medium were allowed to attach for 2 hours prior to incubation with varying concentrations of Dox-amide nanoarticle, and free Dox. Cells were incubated at 37° C., 5% CO2 in a humidified chamber for 48 hours. Cell proliferation was assayed using the calorimetric MTT kit (CT01, Chemicon, Int.).
The toxicity of Dox linked to the nanoarticles via the hydrazone bond was tested in an in vitro toxicity assay against C-32 cells (human melanoma).
In a 96-well tissue culture microtiter plate, 10,000 cells of C-32 per well in culture medium were allowed to attach for 2 hours prior to incubation with varying concentrations of Dox-hydrazone nanoarticle, and free Dox. Cells were incubated at 37° C., 5% CO2 in a humidified chamber for 48 hours. Cell proliferation was assayed using the calorimetric MTT kit (CT01, Chemicon, Int.).

[3] = system: CL66 murine mammary carcinoma cells
Procedure: The efficacy and toxicity of nano-article-conjugated doxorubicin (Dox-NP) was compared to doxorubicin (Dox) and a saline control. Dox-NP of composition 14/1/1 IMMA/CiBA/NaA, 5.6 w % Dox were made following procedures described in Example 16.
CL66 murine mammary carcinoma cells were grown to 80-90% confluence in supplemented media, trypsinized for 2 min at 37° C. with 1× trypsin, rinsed with Hank's Balanced Salt Solution (w/out calcium and magnesium) and resuspended at 1×10^6 cell/ml, with 0.1 ml injected into the mammary fat pad of female Balb/C mice.
Lyophilized Dox-NP was reconstituted in sterile PBS at the appropriate concentration and stored at 2-8° C. for at least 1 hour, or overnight. Excipient Dox was diluted in PBS at the appropriate concentrations. 200 μL was injected intravenously through the tail vein of the mice on days 13, 15, and 18 following tumor challenge. Dox was injected at 225 μg/animal, while Dox-NP was injected at a nano-article level sufficient to deliver Dox at 250, 420 and 560 μg/animal.
Tumor volumes were measured superficially in two dimensions. Weight loss (or gain) and survival were recorded.

With `COc1cccc2c1C(=O)c1c(O)c3c(c(O)c1C2=O)C[C@@](O)(C(=O)CO)C[C@@H]3O[C@H]1C[C@H](N)[C@H](O)[C@H](C)O1` [Doxorubicin] the “reduction of the number of blood vessels / blood vessel distribution around the disk” value ([1]; disks with 5 μg Dox or Dox equivalent) was “most effective in reducing the number of blood vessels”, the “embryos died during treatment” value ([1]; disks with 5 μg) was 3 out of 10 and the 50% growth inhibition [2] was 0.8 µg/mL. For the same compound, the survival time ([3]; 225 μg/animal Dox compared with the higher doses of Dox-NP) was “slightly longer survival time” and the toxicity ([3]; 225 μg/animal i.v. on days 13, 15, 18) was “toxic”.
